For orientation: IC50 means the concentration at which inhibition is half-maximal.

Our source for the IC50 values is patent US12264134B2 (Merck Sharp & Dohme LLC, priority 2018, dated 2025).

Assay [1] has as its target T1, IDO1 (Homo sapiens, UniProt P14902). The assay can be described thus: IDO1 Cellular Assay in HeLa Cells Stimulated with IFNγ. The format is cell-based. Conditions: read-out: HeLa Cell Potency, IC50.
Assay [2] addresses T1, IDO1. Put plainly: IDO1 Human Whole blood Assay. More on the design: Human whole blood was drawn in sodium heparin coated tubes from healthy internal donors; from tissue; host or cells: human whole blood from healthy donors, stimulated with LPS and IFNγ. The format is cell-based. Conditions: LPS and IFNγ stimulated, 18 h, read-out: Human Whole Blood Potency, IC50. Put shortly: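 LC/MS/MS of kynurenine, normalized to spiked isotope-labeled standard (3 μM final), served as the readout. Beforehand, fresh human blood with compound (15 min preincubation) was stimulated overnight (18 h, 37 °C) with 100 ng/mL LPS/IFNγ. IC50 was obtained by four-parameter curve fitting.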

T1 sequence (P14902 whole entry): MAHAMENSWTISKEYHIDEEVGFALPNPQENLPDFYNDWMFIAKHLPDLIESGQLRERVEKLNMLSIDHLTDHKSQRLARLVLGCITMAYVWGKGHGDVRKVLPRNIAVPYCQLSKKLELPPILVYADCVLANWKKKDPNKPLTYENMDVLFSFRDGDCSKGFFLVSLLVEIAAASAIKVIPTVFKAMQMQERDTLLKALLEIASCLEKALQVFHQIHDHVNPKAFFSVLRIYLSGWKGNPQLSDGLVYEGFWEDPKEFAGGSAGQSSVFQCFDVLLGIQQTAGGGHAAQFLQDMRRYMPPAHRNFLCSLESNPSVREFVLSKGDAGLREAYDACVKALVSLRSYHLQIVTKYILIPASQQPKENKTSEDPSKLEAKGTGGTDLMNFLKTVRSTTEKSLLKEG

As for `Cc1cccc(N2CCN(C(=O)Cn3nc(C(=O)N4CCC5(CO)CC4C5)c4c3C[C@H]3C[C@@H]43)C(C)(C)C2)c1C` [Example 333, 1-[4-(2,3-dimethylphenyl)-2,2-dimethylpiperazin-1-yl]-2-{(3bR,4aR)-3-[5-(hydroxymethyl)-2-azabicyclo[3.1.1]heptane-2-carbonyl]-3b,4,4a,5-tetrahydro-1H-cyclopropa[3,4]cyclopenta[1,2-c]pyrazol-1-yl}ethan-1-one], the figures for the half-maximal inhibitory concentration (IC50) at IDO1 [1] and at IDO1 [2] were 8.73 nM and greater than 10000 nM, respectively.

Take `Cc1cccc(N2CCN(C(=O)Cn3nc(C(=O)N4CCC(O)CC4)c4c3C[C@H]3C[C@@H]43)[C@@H](C)C2)c1C` [Example 334, 1-[(2S)-4-(2,3-dimethylphenyl)-2-methylpiperazin-1-yl]-2-[(3bR,4aR)-3-(4-hydroxypiperidine-1-carbonyl)-3b,4,4a,5-tetrahydro-1H-cyclopropa[3,4]cyclopenta[1,2-c]pyrazol-1-yl]ethan-1-one]: the IC50 on IDO1 [1] came out at 1.38 nM; at IDO1 [2], 4070 nM.

Take `Cc1cccc(N2CCN(C(=O)Cn3nc(C(=O)N4CCC(O)CC4)c4c3C[C@H]3C[C@@H]43)[C@H](C)C2)c1C` [Example 335, 1-[(2R)-4-(2,3-dimethylphenyl)-2-methylpiperazin-1-yl]-2-[(3bR,4aR)-3-(4-hydroxypiperidine-1-carbonyl)-3b,4,4a,5-tetrahydro-1H-cyclopropa[3,4]cyclopenta[1,2-c]pyrazol-1-yl]ethan-1-one]: the values for the IC50 on IDO1 [1] and at IDO1 [2] were 2.75 nM and 587 nM, respectively.

Turning to `Cc1c(N2CCN(C(=O)Cn3nc(C(=O)N4CCC(O)CC4)c4c3C[C@H]3C[C@@H]43)CC2)cccc1C(F)(F)F` [Example 338, 2-((3bR,4aR)-3-(4-hydroxypiperidine-1-carbonyl)-3b,4,4a,5-tetrahydro-1H-cyclopropa[3,4]cyclopenta[1,2-c]pyrazol-1-yl)-1-(4-(2-methyl-3-(trifluoromethyl)phenyl)piperazin-1-yl)ethanone], the concentration for half-maximal inhibition (IC50) turned out to be 1.65 nM at IDO1 [1] and 131 nM on IDO1 [2].

Regarding `Cc1c(N2CCN(C(=O)Cn3nc(C(=O)N4CC[C@@H](O)[C@@H](F)C4)c4c3C[C@H]3C[C@@H]43)CC2)cccc1C(F)(F)F` [Example 339, 2-((3bR,4aR)-3-((3S,4R)-3-fluoro-4-hydroxypiperidine-1-carbonyl)-3b,4,4a,5-tetrahydro-1H-cyclopropa[3,4]cyclopenta[1,2-c]pyrazol-1-yl)-1-(4-(2-methyl-3-(trifluoromethyl)phenyl)piperazin-1-yl)ethanone], the half-maximal inhibitory concentration (IC50) at IDO1 [1] turned out to be 1.81 nM; at IDO1 [2], 229 nM.

For the compound `Cc1c(Cl)cccc1N1CCN(C(=O)Cn2nc(C(=O)N3CCN(C(=O)CO)CC3)c3c2C[C@H]2C[C@@H]32)CC1` [Example 352, 1-(4-(3-chloro-2-methylphenyl)piperazin-1-yl)-2-((3bR,4aR)-3-(4-(2-hydroxyacetyl)piperazine-1-carbonyl)-3b,4,4a,5-tetrahydro-1H-cyclopropa[3,4]cyclopenta[1,2-c]pyrazol-1-yl)ethanone], the results for the half-maximal inhibitory concentration (IC50) on IDO1 [1] and on IDO1 [2] were 1.17 nM and 79 nM, respectively.

With `Cc1cccc(N2CCN(C(=O)Cn3nc(C(=O)N4CCN(C(=O)CO)CC4)c4c3C[C@H]3C[C@@H]43)C3(CC3)C2)c1C` [Example 355, 1-(4-((3bR,4aR)-1-(2-(7-(2,3-dimethylphenyl)-4,7-diazaspiro[2.5]octan-4-yl)-2-oxoethyl)-3b,4,4a,5-tetrahydro-1H-cyclopropa[3,4]cyclopenta[1,2-c]pyrazole-3-carbonyl)piperazin-1-yl)-2-hydroxyethanone], the half-maximal inhibitory concentration (IC50) worked out at 0.94 nM at IDO1 [1] and 829 nM at IDO1 [2].

Turning to `Cc1cccc(N2CCN(C(=O)Cn3nc(C(=O)N4CCC(O)CC4)c4c3C[C@H]3C[C@@H]43)C3(CC3)C2)c1C` [Example 357, 1-(7-(2,3-dimethylphenyl)-4,7-diazaspiro[2.5]octan-4-yl)-2-((3bR,4aR)-3-(4-hydroxypiperidine-1-carbonyl)-3b,4,4a,5-tetrahydro-1H-cyclopropa[3,4]cyclopenta[1,2-c]pyrazol-1-yl)ethanone], the IC50 was 0.89 nM on IDO1 [1] and 1870 nM on IDO1 [2].

For `Cc1cccc(N2CCN(C(=O)Cn3nc(C(=O)N4CCO[C@@H](CO)C4)c4c3C[C@H]3C[C@@H]43)C3(CC3)C2)c1C` [Example 360, 1-(7-(2,3-dimethylphenyl)-4,7-diazaspiro[2.5]octan-4-yl)-2-((3bR,4aR)-3-((R)-2-(hydroxymethyl)morpholine-4-carbonyl)-3b,4,4a,5-tetrahydro-1H-cyclopropa[3,4]cyclopenta[1,2-c]pyrazol-1-yl)ethanone], the concentration for half-maximal inhibition (IC50) at IDO1 [1] was 1.17 nM; at IDO1 [2] it was 3870 nM.

As for `Cc1cccc(N2CCN(C(=O)Cn3nc(C(=O)N4CCC(F)(CO)CC4)c4c3C[C@H]3C[C@@H]43)C3(CC3)C2)c1C` [Example 362, 1-(7-(2,3-dimethylphenyl)-4,7-diazaspiro[2.5]octan-4-yl)-2-((3bR,4aR)-3-(4-fluoro-4-(hydroxymethyl)piperidine-1-carbonyl)-3b,4,4a,5-tetrahydro-1H-cyclopropa[3,4]cyclopenta[1,2-c]pyrazol-1-yl)ethanone], the IC50 at IDO1 [1] was determined as 0.8 nM; on IDO1 [2], 335 nM.

In the case of `Cc1c(Cl)cccc1N1CCN(C(=O)Cn2nc(C(=O)N3CCC(O)CC3)c3c2CCC(F)C3)CC1` (stereo not drawn) [Example 366, 1-(4-(3-chloro-2-methylphenyl)piperazin-1-yl)-2-(5-fluoro-3-(4-hydroxypiperidine-1-carbonyl)-4,5,6,7-tetrahydro-1H-indazol-1-yl)ethan-1-one], the IC50 on IDO1 [1] stood at 2.33 nM; at IDO1 [2], 141 nM.

Take `Cc1c(Cl)cccc1N1CCN(C(=O)Cn2nc(C(=O)N3CCC(O)CC3)c3c2CCC(F)(F)C3)CC1` [Example 379, 1-(4-(3-chloro-2-methylphenyl)piperazin-1-yl)-2-(5,5-difluoro-3-(4-hydroxypiperidine-1-carbonyl)-4,5,6,7-tetrahydro-1H-indazol-1-yl)ethan-1-one]: the values for the IC50 on IDO1 [1] and on IDO1 [2] were 3.25 nM and 172 nM, respectively.

With `CC(=O)NC1CCN(C(=O)c2nn(CC(=O)N3CCN(c4cccc(Cl)c4C)CC3)c3c2CC(F)(F)CC3)CC1` [Example 380, N-(1-(1-(2-(4-(3-chloro-2-methylphenyl)piperazin-1-yl)-2-oxoethyl)-5,5-difluoro-4,5,6,7-tetrahydro-1H-indazole-3-carbonyl)piperidin-4-yl)acetamide], the values for the IC50 on IDO1 [1] and at IDO1 [2] were 1.67 nM and 94 nM, respectively.

As for `Cc1c(Cl)cccc1N1CCN(C(=O)Cn2nc(C(=O)N3CC[C@H](O)[C@H](F)C3)c3c2CCC(F)(F)C3)CC1` [Example 381], the IC50 at IDO1 [1] was 4.85 nM; on IDO1 [2], 598 nM.

Take `Cc1c(Cl)cccc1N1CCN(C(=O)Cn2nc(C(=O)N3CCN(C(=O)CO)CC3)c3c2CCC(F)(F)C3)CC1` [Example 384, 1-(4-(3-chloro-2-methylphenyl)piperazin-1-yl)-2-(5,5-difluoro-3-(4-(2-hydroxyacetyl)piperazine-1-carbonyl)-4,5,6,7-tetrahydro-1H-indazol-1-yl)ethan-1-one]: the IC50 was 5.32 nM on IDO1 [1] and 249 nM on IDO1 [2].

Regarding `Cc1cccc(N2CCN(C(=O)Cn3nc(C(=O)N4C[C@@H](C)O[C@@H](C)C4)c4c3CCC4)C3(CC3)C2)c1C` [Example 391, 2-(3-((2S,6R)-2.6-dimethylmorpholine-4-carbonyl)-5,6-dihydrocyclopenta[c]pyrazol-1(4H)-yl)-1-(7-(2,3-dimethylphenyl)-4.7-diazaspiro[2.5]octan-4-yl)ethanone], the IC50 at IDO1 [1] was 5 nM; on IDO1 [2] it was 1000 nM.

For the compound `Cc1c(Cl)cccc1N1CCN(C(=O)Cn2nc(C(=O)N3CCN(C(=O)CO)CC3)c3c2CCCC3)CC1` [Example 405, 1-(4-(3-chloro-2-methylphenyl)piperazin-1-yl)-2-(3-(4-(2-hydroxyacetyl)piperazine-1-carbonyl)-4,5,6,7-tetrahydro-1H-indazol-1-yl)ethanone], the IC50 at IDO1 [1] was found to be 3.58 nM; on IDO1 [2], 180 nM.

Take `Cc1c(Cl)cccc1N1CCN(C(=O)Cn2nc(C(=O)N3CC[C@@H](O)[C@@H](F)C3)c3c2CCCC3)CC1` [Example 406, 1-(4-(3-chloro-2-methylphenyl)piperazin-1-yl)-2-(3-((3S,4R)-3-fluoro-4-hydroxypiperidine-1-carbonyl)-4,5,6,7-tetrahydro-1H-indazol-1-yl)ethanone]: the values for the IC50 on IDO1 [1] and at IDO1 [2] were 3 nM and 306 nM, respectively.

Take `Cc1c(Cl)cccc1N1CCN(C(=O)Cn2nc(C(=O)N3CCC(O)CC3)c3c2C(F)(F)[C@H]2C[C@@H]32)CC1` [Example 448, 1-(4-(3-chloro-2-methylphenyl)piperazin-1-yl)-2-((3bR,4aS)-5,5-difluoro-3-(4-hydroxypiperidine-1-carbonyl)-3b,4,4a,5-tetrahydro-1H-cyclopropa[3,4]cyclopenta[1,2-c]pyrazol-1-yl)ethanone]: the IC50 on IDO1 [1] was 3.54 nM; on IDO1 [2], 365 nM.

On to `Cc1cccc(N2CCN(C(=O)Cn3nc(C(=O)N4C[C@@H](C)O[C@@H](C)C4)c4c3C3CC3C4)CC2)c1C` (stereo partly drawn) [Example 449, 2-(3-((2R,6S)-2,6-dimethylmorpholine-4-carbonyl)-4,4a,5,5a-tetrahydro-1H-cyclopropa[4,5]cyclopenta[1,2-c]pyrazol-1-yl)-1-(4-(2,3-dimethylphenyl)piperazin-1-yl)ethanone], for which the IC50 on IDO1 [1] was determined as 7.99 nM; on IDO1 [2], 543 nM.

As to `Cc1cccc(N2CCN(C(=O)Cn3nc(C(=O)N4CCC(O)CC4)c4c3CCCC4)CC2)c1Cl` [Example 450, 1-(4-(2-chloro-3-methylphenyl)piperazin-1-yl)-2-(3-(4-hydroxypiperidine-1-carbonyl)-4,5,6,7-tetrahydro-1H-indazol-1-yl)ethanone], the concentration for half-maximal inhibition (IC50) worked out at 1.83 nM at IDO1 [1] and 152 nM on IDO1 [2].
